Data reported in publication PMC7377239, “Cardiovascular Effects of Polychlorinated Biphenyls and Their Major Metabolites” (Environmental Health Perspectives, 2020).
Like-named read-outs stand apart in the source and are kept apart here.

Tested on: iCell cardiomyocytes (human iPSC-derived cardiomyocytes)
Experiment: High-content imaging of cytotoxicity and mitochondrial integrity in iPSC-CMs
Assay type: cell-based
Settings: Homo sapiens, Cardiomyocyte; for viability at 0.01 µM / activity at 0.01 µM / viability at 0.1 µM / activity at 0.1 µM / viability at 1 µM / activity at 1 µM / viability at 10 µM / activity at 10 µM / viability at 100 µM / activity at 100 µM: 0.00 µM = 100.00; for viability at 0.1 µM / activity at 0.1 µM: 0.10 µM
Summary of the method: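 Human iPSC-derived cardiomyocytes were seeded on gelatin-coated 384-well plates at 5,000 cells per well and maintained for 12 d. Test chemicals were added as 10μL of 5× solutions to final concentrations of 0.01 to 100μM. Cells were stained with Hoechst 33342 and MitoTracker™ Orange, fixed in formaldehyde, and imaged by confocal high-content microscopy at 10× magnification.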

[1] = 1.5 h, 90min, read-out: cm.cam.90min
[2] = 1.5 h, 90min, read-out: cm.mii.90min
[3] = 1.5 h, 90min, read-out: cm.mito.90min
[4] = 1.5 h, 90min, read-out: cm.tc.90min
[5] = 24 h, 24hrs, read-out: cm.cam.24hrs
[6] = 24 h, 24hrs, read-out: cm.mii.24hrs
[7] = 24 h, 24hrs, read-out: cm.mito.24hrs
[8] = 24 h, 24hrs, read-out: cm.tc.24hrs

With `Clc1cc(Cl)c(-c2cc(Cl)c(Cl)cc2Cl)cc1Cl` [PCB153] as the compound, how does the viability at 0.01 µM [1] read?
Its viability at 0.01 µM is 98.3%.

And the activity at 0.01 µM [2]?
Its activity at 0.01 µM is 112%.

What about the activity at 0.01 µM [3] of the same compound?
Its activity at 0.01 µM is 98.2%.

And the viability at 0.01 µM [4]?
Its viability at 0.01 µM is 98.1%.

And the viability at 0.1 µM [1]?
The viability at 0.1 µM was 96.8%.

And the activity at 0.1 µM [2]?
The activity at 0.1 µM was 109%.

What about the activity at 0.1 µM [3] of the same compound?
The activity at 0.1 µM was 96.6%.

And the viability at 0.1 µM [4]?
Its viability at 0.1 µM is 96.6%.

What about the viability at 1 µM [1] of the same compound?
Its viability at 1 µM is 102%.

What about the activity at 1 µM [2] of the same compound?
The activity at 1 µM was 112%.

And the activity at 1 µM [3]?
The activity at 1 µM was 102%.

And the viability at 1 µM [4]?
The viability at 1 µM was 102%.

And the viability at 10 µM [1]?
The viability at 10 µM was 99.4%.

And the activity at 10 µM [2]?
Its activity at 10 µM is 102%.

And the activity at 10 µM [3]?
The activity at 10 µM was 99.5%.

And the viability at 10 µM [4]?
Its viability at 10 µM is 99.5%.

What about the viability at 100 µM [1] of the same compound?
Its viability at 100 µM is 1.35%.

What about the activity at 100 µM [2] of the same compound?
The activity at 100 µM was 91%.

What about the activity at 100 µM [3] of the same compound?
Its activity at 100 µM is 1.22%.

And the viability at 100 µM [4]?
Its viability at 100 µM is 1.5%.

And the minimal effective concentration (1.5 h, 90min, read-out: cm.cam.90min POD)?
The minimal effective concentration was 20.6 µM.

And the minimal effective concentration (1.5 h, 90min, read-out: cm.mii.90min POD)?
The minimal effective concentration was 100 µM.

What about the minimal effective concentration (1.5 h, 90min, read-out: cm.mito.90min POD) of the same compound?
The minimal effective concentration was 19.8 µM.

And the minimal effective concentration (1.5 h, 90min, read-out: cm.tc.90min POD)?
Its minimal effective concentration is 23.2 µM.

And the viability at 0.01 µM [5]?
Its viability at 0.01 µM is 94.6%.

What about the activity at 0.01 µM [6] of the same compound?
The activity at 0.01 µM was 88.6%.

And the activity at 0.01 µM [7]?
The activity at 0.01 µM was 94.7%.

What about the viability at 0.01 µM [8] of the same compound?
Its viability at 0.01 µM is 95.8%.

What about the viability at 0.1 µM [5] of the same compound?
Its viability at 0.1 µM is 98.2%.

What about the activity at 0.1 µM [6] of the same compound?
Its activity at 0.1 µM is 109%.

What about the activity at 0.1 µM [7] of the same compound?
Its activity at 0.1 µM is 99.3%.

What about the viability at 0.1 µM [8] of the same compound?
Its viability at 0.1 µM is 98.3%.

What about the viability at 1 µM [5] of the same compound?
The viability at 1 µM was 99.7%.

What about the activity at 1 µM [6] of the same compound?
The activity at 1 µM was 80.6%.

And the activity at 1 µM [7]?
Its activity at 1 µM is 100%.

And the viability at 1 µM [8]?
The viability at 1 µM was 99.9%.

What about the viability at 10 µM [5] of the same compound?
Its viability at 10 µM is 96.8%.

And the activity at 10 µM [6]?
Its activity at 10 µM is 99.6%.

What about the activity at 10 µM [7] of the same compound?
Its activity at 10 µM is 95.2%.

What about the viability at 10 µM [8] of the same compound?
Its viability at 10 µM is 96.5%.

What about the viability at 100 µM [5] of the same compound?
The viability at 100 µM was 1.91%.

And the activity at 100 µM [6]?
The activity at 100 µM was 23.6%.

What about the activity at 100 µM [7] of the same compound?
The activity at 100 µM was 0.34%.

And the viability at 100 µM [8]?
The viability at 100 µM was 1.92%.

What about the minimal effective concentration (24 h, read-out: cm.cam.24hrs POD) of the same compound?
Its minimal effective concentration is 11.6 µM.

And the minimal effective concentration (24 h, read-out: cm.mii.24hrs POD)?
The minimal effective concentration was 39.9 µM.

What about the minimal effective concentration (24 h, read-out: cm.mito.24hrs POD) of the same compound?
The minimal effective concentration was 10.5 µM.

What about the minimal effective concentration (24 h, read-out: cm.tc.24hrs POD) of the same compound?
Its minimal effective concentration is 11.1 µM.
